Key:
Assay type in all cases: cell-based
[1] = system: corn Hi II type II calluses; experiment: Co-delivery of 6-BA or zeatin with tdTomato construct pGEP359 by microprojectile bombardment, transient transformation; conditions: 250 ng hormone, 100 μg gold particles, 16 hours after bombardment, vs no hormone
Description: The amounts of 6-BA or zeatin used for a bombardment with 100 μg of gold particles (approximately, 4.0-5.0×10^7 0.6 μm gold particles) are in range of 1.0 ng to 10000 ng, preferred 10 ng to 1000 ng.

[2] = system: corn Hi II immature embryos; experiment: Co-delivery of TSA with gene editing construct pGEP284, site-specific InDel rate by NGS
Description: Embryo isolation, microprojectile bombardment and post-bombardment handlings were performed using the same procedure as described in Example 1. Two days after bombardment, the embryos were harvested and used for genomic DNA isolation use Plant DNA Isolation kit from Qiagen (Venlo, Netherlands). NGS (next generation sequencing) was conducted by Miseq platform of Illumina Inc. (San Diego, Calif., USA). InDel (insertion and deletion) rate was analyzed by means of CRISPResso (http://crispresso.rocks/).

[3] = system: corn Hi II type II calluses; experiment: Co-delivery of TSA with gene editing constructs pGEP359 and pGEP353, site-specific InDel rate by NGS; conditions: 15 ng TSA vs no TSA, 13 days after co-bombardment
Description: Type II callus culture and microprojectile bombardment and post-bombardment handlings were performed using the same procedure as described in Example 2. 2-15 days after bombardment, the calluses were harvested and used for genomic DNA isolation with a Plant DNA Isolation kit from Qiagen. NGS (next generation sequencing) was conducted by Illumina Miseq platform. InDel (insertion and deletion) rate was analyzed by means of CRISPResso.

[4] = system: corn Hi II immature embryos; experiment: Co-delivery of TSA with tdTomato construct pLH-Pat5077399-70Subi-tDt by microprojectile bombardment, transient transformation
Description: Procedure: Prepare corn immature embryo for bombardment: 8-10 days post pollination, maize ears (i.e. A188 or Hi II) with immature embryos size 0.8 to 1.8 mm were harvested. The ears were sterilized with 70% ethanol for 10-15 minutes. After a brief air-dry in a laminar hood, remove top ˜⅓ of the kernels from the ears with a shark scalpel, and pull the immature embryos out of the kernels carefully with a spatula. The fresh isolated embryos were placed onto the bombardment target area in an osmotic medium plate (see below) with scutellum-side up. Wrap the plates with parafilm and incubated them at 25° C. in dark for 4-20 hours before bombardment.
The amounts of TSA used for a bombardment with 100 μg of gold particles (approximately, 4.0-5.0×10^7 0.6 micron gold particles) are in range of 0.01 ng to 500 ng, preferred 0.1 to 50 ng. Plasmid DNA and TSA co-coating onto gold particles for bombardment: For 10 shots, 1 mg of gold particle size 0.6 micron (μm) in 50% (v/v) glycerol (100 μg gold particles per shot) in a total volume of 100 microliter (μl) was pipetted into a clear low-retention microcentrifuge tube. Sonicate for 15 seconds to suspend the gold particles. While vortex at a low speed, add the following in order to each 100 μl of gold particles: • Up to 10 μl of DNA (1.0 μg total DNA, 100 ng per shot) • 100 μl of 2.5 M CaCl2) (pre-cold on ice) • 40 μl of 0.1 M cold spermidine
Close the lid and vortex the tube for 2-30 minutes at 0-10° C., and spin down the DNA-coated gold particles. After washing in 500 μl of 100% ethanol for two times, the pellet was resuspended in 120 μl of 100% ethanol. […]
Bombardment was conducted using a Bio-Rad PDS-1000/He particle gun. […] 16-48 hours after bombardment, transient transformation was examined using a fluorescence microscope for the tdTomato gene expression at excitation maximum 554 nm and emission maximum 581 nm. […]

[5] = system: corn Hi II type II calluses; experiment: Co-delivery of TSA with tdTomato construct pGEP359 by microprojectile bombardment, transient transformation; conditions: 15 ng TSA, 100 μg gold particles, 16 hours after bombardment, vs no TSA
Description: Type II callus induction and selection: Hi II immature embryos size 0.8-1.8 mm were isolated as described in Example 1, and were placed onto type II callus induction medium (see below) immediately with scutellum-side up, in a density of 10-15 embryo per plate (diameter of 100 mm). Wrap the plates with parafilm, and culture the embryos in plate at 27° C. in the dark until type II callus emerged (˜2 weeks). Pick friable type II calluses under a stereoscope, and move them onto type II callus selection medium (see below). Repeat this process for 2-3 more times, and trash the embryos 4 weeks after induction. Select pre-embryo stage of type II callus under a stereoscope carefully based on: friability (highly friable), morphology (no embryo-like structure), color (fresh, white, semi-transparent). Select and subculture type II callus every 1-2 week in callus selection medium (see below) until the callus lines stabilized (about 3-5 rounds of selection). Stable type II callus lines were cultured in type II callus subculture medium (see below) every 1 to 2 weeks.
Preparation of type II callus for bombardment: Select and transfer highly friable type II callus at pre-embryo stage onto the bombardment target region in an osmotic medium plate (see Example 1) (single layer, no overlapping). […]

[6] = system: sugar beet friable calluses; experiment: Co-delivery of TSA with pLH-Pat5077399-70Subi-tDt by microprojectile bombardment, transient transformation; conditions: 15 ng TSA, 300 μg gold particles, 24 hours after bombardment, vs no TSA
Description: Sugar beet callus induction: young leaves from in vitro cultured sugar beet shoots in shoot culture medium (see below) were cut into small pieces (square, size 3-5 mm) in a laminar hood, and placed them onto callus induction medium (see below), in a density of 10-15 pieces per plate (diameter of 100 mm) with adaxial-side up. Wrap the plates with parafilm, and culture the leaf segments in plate at 23° C. in the dark for 6-8 weeks until callus emerged.
Preparation of sugar beet callus for bombardment: harvest friable fresh calluses under a stereoscope, and transfer them onto the bombardment target area in a sugar beet osmatic medium (see below) (single layer, no overlapping). Wrap the plates with parafilm and incubated at 25° C. in dark for 4-20 hours before bombardment.
Microprojectile bombardment and post-bombardment handlings were conducted using the same procedure descripted in Example 1, except for the amount of gold particles used for a bombardment was 300 μg.
Sugar beet shoot culture medium: MS, 0.25 mg/L of BAP, 30 g/L of sucrose, 8 g/I plant agar, pH 6.0
Sugar beet callus induction medium: MS, 2.0 mg/L of BAP, 15 g/L of sucrose, 8 g/I plant agar, pH 6.0
Sugar beet callus osmatic medium: MS, 2.0 mg/L of BAP, 15 g/L of sucrose, 0.2 M Mannitol (36.4 g/L), 0.2 M sorbitol (36.4 g/L), 8 g/I plant agar, pH 6.0

[7] = system: corn Hi II type II callus; experiment: Co-delivery of 2,4-D with mNeonGreen construct pGEP362 by microprojectile bombardment, transient transformation; conditions: 125 ng, 250 ng, 500 ng 2,4-D vs 0 ng; 16 hours after bombardment
Description: Type II callus culture and microprojectile bombardment and post-bombardment handlings were performed using the same procedure as described in Example 2.
(§1) The amounts of 2,4-D used for a bombardment with 100 μg of gold particles (approximately, 4.0-5.0×10^7 0.6 μm gold particles) are in range of 1.0 ng to 1000 ng, preferred 10 ng to 500 ng. Plasmid DNA and 2,4-D co-coating onto gold particles for bombardment were conducted as described in Example 6.

[8] = system: corn Hi II immature embryos; experiment: as above; conditions: 250 ng 2,4-D, 100 μg gold particles, 16 hours after bombardment, vs no 2,4-D
Description: Embryo isolation and microprojectile bombardment and post-bombardment handlings were performed using the same procedure as described in Example 1.
as §1, with “1. 2,4-D stock solution (e.g. 1 mg/ml) is prepared in 100% DMSO.” for “6.”

leaves of corn plants = experiment: Co-delivery of 2,4-D with tdTomato construct pGEP359 by microprojectile bombardment, transient transformation; conditions: 250 ng 2,4-D, 20 hours after bombardment, vs without 2,4-D
Description: Corn plants have grown in greenhouse. In stage V8 microprojectile bombardment was conducted using a Bio-Rad PDS-1000/He particle gun. The bombardment conditions are: 27-28 mm/Hg vacuum, 450 or 650 psi rupture disc, 6 mm gap distance. 20 hours after bombardment, transient transformation was examined using a fluorescence microscope for the tdTomato gene expression at excitation maximum 554 nm and emission maximum 581 nm. Plasmid DNA and 2,4-D co-coating onto gold particles for bombardment were conducted as described in Example 1. 2,4-D stock solution (e.g. 25 mg/ml in DMSO).

SMILES: c1ccc(CNc2ncnc3nc[nH]c23)cc1 [6-BA, 6-Benzylaminopurine]
- increase in average number of red fluorescent cells per field [1]: 35.8%

SMILES: C/C(=C\CNc1ncnc2[nH]cnc12)CO [zeatin, Zeatin]
- increase in average number of red fluorescent cells per field [1]: 31.2%

SMILES: CC(/C=C/C(=O)NO)=C\[C@@H](C)C(=O)c1ccc(N(C)C)cc1 [TSA, trichostatin A]
- effect of lower and higher TSA amounts on InDel rates ([2]; 15 ng and 45 ng TSA compared to absence of TSA, 2 days): significant increase of InDel rates
- TSA amount giving optimum of rates of InDel events ([2]; no TSA, 15, 30, 45 ng TSA tested, 2 days after bombardment, pGEP284): around 30 ng
- increase of site-specific InDel rate, factor [3]: 6.75
- increase of site-specific InDel rate, percent [3]: 575%
- increase of average number of red fluorescent cells (positively transient transformed cells) per embryo ([4]; 15 ng TSA, 100 μg gold particles 0.6 μm, 16 hours after bombardment, vs no TSA): 98.2%
- effect of lower and higher TSA amounts on transient transformed cells ([4]; 15 ng and 45 ng TSA vs no TSA, 16 hours): significant increase of transient transformed cells
- TSA amount giving optimum of average number of fluorescent cells per field ([4]; no TSA, 15, 30, 45 ng TSA tested, 16 hours): around 30 ng
- increase of average number of fluorescent cells per field [5]: 43.3%
- increase of average number of fluorescent cells per field [6]: 193.7%

SMILES: O=C(O)COc1ccc(Cl)cc1Cl [2,4-D, 2,4-Dichlorophenoxyacetic acid]
- increase of average number of green fluorescent cells per field [7]: at least 34.8%
- increase in average number of green fluorescent cells per embryo [8]: 187%
- effect on transient transformation in corn leaves (leaves of corn plants): improved the transient transformation
